{
  "source": "patent US7416741B2",
  "about": "“Copper lowering treatment of inflammatory and fibrotic diseases” (The Regents of the University of Michigan, priority 2002, dated 2008)",
  "key": {"[1]": {"system": "vascular endothelial growth factor (VEGF)", "assay": "Retinopathy of prematurity in newborn mice", "type": "in vivo, mouse", "conditions": "hyperoxia then room air", "protocol": "The present invention also contemplates the antiangiogenic therapeutic effects of TM in diseases of neovascularization besides cancer (e.g., animal models of retinopathy). In retinopathy of prematurity, newborn mice exposed to hyperoxia for five days develop a marked retinopathy after four days exposure to room air, with a peak of a major angiogenic stimulus, vascular endothelial growth factor (VEGF), at 24 hours."}, "[2]": {"system": "carbon tetrachloride (CT) mouse model", "assay": "Liver hydroxyproline and histology in the CT mouse model", "type": "in vivo", "conditions": "Ex 6", "protocol": "The carbon tetrachloride (CT) mouse model produces much more liver fibrosis (cirrhosis) than the Con A model. In this model carbon tetrachloride is injected intraperitoneally twice weekly, and after 12 weeks, a well-established cirrhosis should be present. This can be evaluated histologically, and can be quantitated by measuring liver hydroxyproline, a major amino acid in collagen. The TM was started in TM treated animals at the beginning of week 5 and the animals were sacrificed at week 12."}, "[3]": {"system": "cancer patients", "conditions": "clinical phase ½ study of metastatic and advanced cancers; cited from earlier work"}, "[4]": {"system": "Lysyl oxidase", "assay": "Lysyl oxidase in the lungs, bleomycin model", "type": "in vivo, mouse", "conditions": "Ex 2 Exp 1; TM treated vs non-TM treated animals"}, "[5]": {"system": "rats", "conditions": "cited from earlier work"}, "[6]": {"system": "Wilson's disease patients", "assay": "Open label study of TM for initial treatment of neurologically presenting Wilson's disease patients", "type": "in vivo, human", "description": "The results in the first patient studied can be used to illustrate several points. For the first seven days, the patient received TM only with meals (tid with meals). This produced the immediate negative copper balance one would expect from the first mechanism of action (blockade of copper absorption when given with meals). After the first seven days, TM was given between meals as well (tid with meals, and tid between meals). This led to the immediate rise in plasma copper expected from absorption of TM into the blood, and formation of a complex of copper, TM, and albumin. The copper complexed with TM and albumin is unavailable for cellular uptake, and this copper is therefore non-toxic. There is a 1:1 stochiometric relationship between molybdenum and copper in this complex. Knowing the molybdenum level in the blood, and the ceruloplasmin level (ceruloplasmin also contains copper that is non-toxic), one can calculate how much of the plasma copper is not bound to one or the other. This so-called “free copper” (non-ceruloplasmin plasma copper) is the potentially toxic copper. When reduced to zero, the plasma copper-molybdenum “gap” is closed. This took 16 days in the first patient (9 days after adding the between meal doses). Since in the brain (and in other organs), free copper is in equilibrium with the blood, decreasing the blood free copper to a low level begins the process of lowering the brain level of free (toxic) copper.\nThe inventors have treated initially 56 Wilson's disease patients with TM, all of whom presented with neurological or psychiatric disease, in an open label study. These patients were all diagnosed by standard criteria. […] Some of them were treated briefly with other agents prior to this trial. Two patients had psychiatric but not neurological symptoms.\nWith three exceptions in the earliest part of the study, all patients received a dose of 20 mg tid with meals, or qid with three meals and a snack. Thus, the only difference between a patient receiving 120 mg and 140 mg total dose is that the former was receiving 20 mg tid, or 60 mg, with meals, and the latter was receiving 20 mg qid, or 80 mg with meals plus a snack. The rest of the total daily dose was divided up into three equal doses and given between meals.\nMeasuring trichloracetic acid (TCA) soluble copper of the plasma is somewhat useful in assessing the impact of TM therapy on copper metabolism in Wilson's disease. Generally, a high proportion of plasma copper in these patients is TCA soluble (it averaged 56% in patients which is 27 p.g/dl). All of the non-ceruloplasmin plasma copper is TCA soluble, and a somewhat variable portion of the ceruloplasmin copper is also TCA soluble. Because the ceruloplasmin levels are usually rather low in Wilson's disease, most of the plasma copper is TCA soluble. The copper in the TM/albumin/copper complex in the blood is TCA insoluble. Thus, as therapy proceeds, the fraction of the plasma copper that is TCA soluble becomes smaller. […] The TCA soluble fraction cannot be used as an absolute endpoint, for example attempting to reduce it to zero, because a small and somewhat variable soluble fraction is usually present due to plasma ceruloplasmin. However, the significant mean reduction from 27 to 15 p.g/dl illustrates the beneficial effect that TM therapy has on the status of the potentially toxic plasma copper in these patients. Further evidence of the desirable impact of TM therapy on copper metabolism is shown by reduction of mean urine copper values during the latter part of TM therapy, compared to baseline values.\nTM has a quick and favorable impact on copper metabolism, reducing the levels of potentially toxic copper of the blood and as contemplated the rest of the body as well. The primary clinical objective in treatment of Wilson's disease is to gain control over copper toxicity while not allowing worsening of the disease or symptoms. […]"}, "[7]": {"system": "Con A mouse model", "assay": "Liver histological examination in the Con A mouse model", "type": "in vivo", "conditions": "Ex 4; Con A mice", "protocol": "A study was carried out in a mouse model of concanavilin A (Con A) production of liver cirrhosis. There were four experimental groups of several mice each. […] The Con A was injected intravenously once weekly into mice (0.3 mg/mouse/week), and produced a hepatitis, which is manifested by an increasing level of alanine transaminase (ALT) enzymes in the blood. The TM was given once daily by […] in a dose of 0.7 mg/mouse/day beginning 7 days prior to ConA treatment. During days 9 to 11 after Con A, the TM-treated mice received 1.2 mg of TM daily, to ensure adequate lowering of copper levels, and then received 0.7 mg daily for the duration of the study. A blood sample was obtained 28 days after ConA treatment, and the mice were sacrificed on the same day. Serum alanine transaminase (ALT) was measured in Sigma-Frankel (SF) units, where one unit is the formation of 0.000482 umoles of glutamate/minute at pH 7.5 and 25 ° C."}, "[8]": {"conditions": "among the seven anemia patients"}},
  "note": "Read-outs that look alike come from different tables or passages of the source.",
  "data": [
    {"smiles": "[SH-].[SH-].[S]=[Mo]=[S]", "note": "[TM, tetrathiomolybdate]", "values": [
      {"measurement": "VEGF peak", "setting": "[1]", "result": "strong inhibition"},
      {"measurement": "retinal neovascularization", "setting": "[1]", "result": "dramatic reduction"},
      {"measurement": "liver histology", "setting": "[2]; CT/TM treated liver", "result": "essentially normal"},
      {"measurement": "liver fibrosis as evaluated by hydroxyproline", "setting": "[2]; CT/TM, after week 12", "result": "blocks all fibrosis"},
      {"measurement": "average freedom from progression in evaluable patients", "setting": "[3]", "result": 11, "unit": "months"},
      {"measurement": "lysyl oxidase activity in the lungs", "setting": "[4]", "result": "not inhibited"},
      {"measurement": "effects on copper levels (plasma ceruloplasmin, liver and kidney copper)", "setting": "[5]; approximately 6 mg of TM per kilogram of diet", "result": "substantial effects on copper levels"},
      {"measurement": "anemia", "setting": "[5]; approximately 12 mg of TM per kilogram of diet", "result": "Mild anemia"},
      {"measurement": "skeletal lesions", "setting": "[5]; approximately 12 mg of TM", "result": "one of six animals"},
      {"measurement": "anemia", "setting": "[5]; approximately 18 mg of TM", "result": "severe"},
      {"measurement": "growth rate", "setting": "[5]; approximately 18 mg of TM", "result": "markedly impaired"},
      {"measurement": "skeletal lesions", "setting": "[5]; approximately 18 mg of TM", "result": "all animals had skeletal lesions"},
      {"measurement": "patients with reversible anemia/bone marrow depression", "setting": "[6]; 56 patients", "result": "seven"},
      {"measurement": "patients with elevation of transaminase values (serum AST and ALT)", "setting": "[6]; all treated with 150 mg TM/day or higher", "result": "four of the patients"},
      {"measurement": "patients with reduction in platelet count", "setting": "[6]; [8]", "result": "Three of the patients"},
      {"measurement": "patients with reduction in white blood cell count", "setting": "[6]; [8]", "result": "four of the patients"},
      {"measurement": "fall in hemoglobin", "setting": "[6]; average in the seven anemia patients", "result": 3.4, "unit": "%"},
      {"measurement": "overtreatment incidence", "setting": "[6]; dose of 180 mg/day or over", "result": "6 of 37"},
      {"measurement": "overtreatment incidence", "setting": "[6]; dose of 150 or lower", "result": "1 of 13"},
      {"measurement": "patients with change of more than 5 units in quantitative neurological exam (significant worsening)", "setting": "[6]; during weeks of TM administration, two patients", "result": 4, "unit": "%"},
      {"measurement": "time to close the plasma copper-molybdenum gap (free copper reduced to zero)", "setting": "[6]; first patient, TM tid with meals, from day 7 also tid between meals", "result": 16, "unit": "days"},
      {"measurement": "quantitative speech exam scores", "setting": "[6]; initial 8 weeks of TM therapy", "result": "No patient shows significant (more than 2.0 units) reduction in scores"},
      {"measurement": "histological examination: inflammation and early bridging fibrosis", "setting": "[7]", "result": "not in the TM treated animals"}
    ]}
  ]
}
